Reference: patent EP3046573B1, “AMYLIN ANALOGUES” (Zealand Pharma A/S, priority 2013, dated 2015)
Numbered stars: 1 amine (or outer) side, 2 acyl side, 3 side chain; on linkers, the order of the positions; unused ones are H or OH. Bridge positions count the residues as written; N and C are the ends. Square brackets hold non-standard residues; d marks the D form. Peptide text beside a SMILES is read from it. * marks the point of attachment. C20 diacid = O=C(O)CCCCCCCCCCCCCCCCCCC(=O)*; γGlu = O=C(O)[C@H](CCC(=O)[*:2])N[*:1]; Hyp = O=C(O)[C@@H]1C[C@@H](O)CN1; NMeI = CC[C@H](C)[C@H](NC)C(=O)O; Aze = O=C(O)[C@@H]1CCN1; Sar = CNCC(=O)O

Columns and labels:
[1] = target: T1, human calcitonin receptor (hCTR2) (Homo sapiens, UniProt P30988); assay: hCTR2 assay: induction of cAMP (AlphaScreen cAMP Assay kit) in COS7 cells expressing hCTR2; assay type: cell-based
T1 construct: expressed in transfected cells
T1 sequence (P30988 25-474): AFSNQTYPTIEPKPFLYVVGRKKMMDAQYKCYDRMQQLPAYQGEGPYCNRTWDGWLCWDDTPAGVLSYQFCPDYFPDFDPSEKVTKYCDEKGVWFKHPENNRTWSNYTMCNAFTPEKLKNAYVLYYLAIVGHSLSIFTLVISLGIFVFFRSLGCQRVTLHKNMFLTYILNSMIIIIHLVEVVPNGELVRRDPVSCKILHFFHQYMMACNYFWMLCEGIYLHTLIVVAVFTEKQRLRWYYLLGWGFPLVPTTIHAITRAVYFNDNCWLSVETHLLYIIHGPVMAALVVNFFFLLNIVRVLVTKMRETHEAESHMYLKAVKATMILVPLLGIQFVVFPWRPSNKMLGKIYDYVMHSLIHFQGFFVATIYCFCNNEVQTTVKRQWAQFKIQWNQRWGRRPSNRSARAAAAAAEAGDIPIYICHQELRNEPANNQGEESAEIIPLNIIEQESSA
Procedure, shortened: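 Stable RAMP-naive COS7 clone expressing hCTR2 was stimulated with increasing peptide concentrations in Tyrode buffer (pH 7.4) with 100 µM IBMX and 0.1% casein for 15 min at 37° C. Cells were lysed and cAMP measured by AlphaScreen. EC50 and efficacy relative to pramlintide came from 4PL curve fits.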

[2] = Solubility assessment (turbidity absorbance at 325 nm); assay type: physicochemical; settings: stock 2 mg/ml diluted 1:1, ambient temperature (typically 25°C), n=1; for Solubility, Acetate buffer pH 4: 100 mM acetate buffer pH 4.0; for Solubility, Acetate buffer pH 5: 100 mM acetate buffer pH 5.0; for Solubility, Histidine buffer pH 6: 100 mM histidine buffer pH 6.0; for Solubility, Histidine buffer pH 7: 100 mM histidine buffer pH 7.0; for Solubility, Phosphate buffer pH 6: 100 mM phosphate buffer pH 6.0; for Solubility, Phosphate buffer pH 7: 100 mM phosphate buffer pH 7.0; for Solubility, Phosphate buffer pH 7.5: 100 mM phosphate buffer pH7.5
Procedure, shortened: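 Peptide stock (2 mg/ml, water pH 2.5) diluted 1:1 into 100 mM acetate (pH 4.0, 5.0), histidine (pH 6.0, 7.0) or phosphate (pH 6.0–7.5) buffer; absorbance at 325 nm read at about 25°C, n=1. A325 ≤ 0.02 taken as solubility ≥ 1 mg/ml.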

Row | Compound | EC50 [1] [pM] | Solubility, Acetate buffer pH 4 [2] | Solubility, Acetate buffer pH 5 [2] | Solubility, Histidine buffer pH 6 [2] | Solubility, Histidine buffer pH 7 [2] | Solubility, Phosphate buffer pH 6 [2] | Solubility, Phosphate buffer pH 7 [2] | Solubility, Phosphate buffer pH 7.5 [2]
1 | CC[C@H](C)[C@@H](C(=O)N[C@@H](CC(C)C)C(=O)N[C@@H](CO)C(=O)N[C@@H](CO)C(=O)N[C@H](C(=O)N[C@@H](CC(N)=O)C(=O)N[C@H](C(=O)NCC(=O)N[C@@H](CO)C(=O)N[C@@H](CC(N)=O)C(=O)N[C@H](C(=O)N1CCC[C@H]1C(N)=O)[C@@H](C)O)C(C)C)[C@@H](C)O)N(C)C(=O)[C@H](C)NC(=O)CN(C)C(=O)[C@H](Cc1ccccc1)NC(=O)[C@H](CC(N)=O)NC(=O)[C@H](CC(N)=O)NC(=O)[C@H](CO)NC(=O)[C@H](CO)NC(=O)[C@H](CCCNC(=N)N)NC(=O)[C@H](Cc1c[nH]cn1)NC(=O)[C@H](CC(C)C)NC(=O)[C@H](Cc1ccccc1)NC(=O)[C@H](CCC(=O)O)NC(=O)[C@H](C)NC(=O)[C@H](CC(C)C)NC(=O)[C@H](CCCNC(=N)N)NC(=O)[C@H](CCC(N)=O)NC(=O)[C@@H](NC(=O)[C@H](C)NC(=O)[C@@H]1CSSC[C@H](NC(=O)[C@H](CCCCN)NC(=O)[C@H](CCCCN)NC(=O)CC[C@H](NC(=O)CCCCCCCCCCCCCCCCCCC(=O)O)C(=O)O)C(=O)N[C@@H](CC(N)=O)C(=O)N[C@@H]([C@@H](C)O)C(=O)N[C@@H](C)C(=O)N[C@@H]([C@@H](C)O)C(=O)N1)[C@@H](C)O [Compound 87, [19CD]-isoGlu-KKC()NTATC()ATQRLAEFLHRSSNNF-Gly(Me)-A-Ile(Me)-LSSTNVGSNTP-NH2] ({C20 diacid-γGlu}-KKCNTATCATQRLAEFLHRSSNNF[Sar]A[NMeI]LSSTNVGSNTP-NH2; disulfide 3-8) | 46 | SS (SS indicates solubility ≥ 1mg/ml) | SS (SS indicates solubility ≥ 1mg/ml) | SS (SS indicates solubility ≥ 1mg/ml) | SS (SS indicates solubility ≥ 1mg/ml) | SS (SS indicates solubility ≥ 1mg/ml) | SS (SS indicates solubility ≥ 1mg/ml) | SS (SS indicates solubility ≥ 1mg/ml)
2 | CC[C@H](C)[C@@H](C(=O)N[C@@H](CC(C)C)C(=O)N[C@@H](CO)C(=O)N[C@@H](CO)C(=O)N[C@H](C(=O)N[C@@H](CC(N)=O)C(=O)N[C@H](C(=O)NCC(=O)N[C@@H](CO)C(=O)N[C@@H](CC(N)=O)C(=O)N[C@H](C(=O)N1C[C@H](O)C[C@H]1C(N)=O)[C@@H](C)O)C(C)C)[C@@H](C)O)N(C)C(=O)[C@H](C)NC(=O)CN(C)C(=O)[C@H](Cc1ccccc1)NC(=O)[C@H](CC(N)=O)NC(=O)[C@H](CC(N)=O)NC(=O)[C@H](CO)NC(=O)[C@H](CO)NC(=O)[C@H](CCCNC(=N)N)NC(=O)[C@H](Cc1c[nH]cn1)NC(=O)[C@H](CC(C)C)NC(=O)[C@H](Cc1ccccc1)NC(=O)[C@H](CCC(=O)O)NC(=O)[C@H](C)NC(=O)[C@H](CC(C)C)NC(=O)[C@H](CCCNC(=N)N)NC(=O)[C@H](CCC(N)=O)NC(=O)[C@@H](NC(=O)[C@H](C)NC(=O)[C@@H]1CSSC[C@H](NC(=O)[C@H](CCCNC(=N)N)NC(=O)CC[C@H](NC(=O)CCCCCCCCCCCCCCCCCCC(=O)O)C(=O)O)C(=O)N[C@@H](CC(N)=O)C(=O)N[C@@H]([C@@H](C)O)C(=O)N[C@@H](C)C(=O)N[C@@H]([C@@H](C)O)C(=O)N1)[C@@H](C)O [Compound 105, [19CD]-isoGlu-RC()NTATC()ATQRLAEFLHRSSNNF-Gly(Me)-A-Ile(Me)-LSSTNVGSNT-Hyp-NH2] ({C20 diacid-γGlu}-RCNTATCATQRLAEFLHRSSNNF[Sar]A[NMeI]LSSTNVGSNT[Hyp]-NH2; disulfide 2-7) | 83 | SS (SS indicates solubility ≥ 1mg/ml) | SS (SS indicates solubility ≥ 1mg/ml) | SS (SS indicates solubility ≥ 1mg/ml) | SS (SS indicates solubility ≥ 1mg/ml) | SS (SS indicates solubility ≥ 1mg/ml) | SS (SS indicates solubility ≥ 1mg/ml) | SS (SS indicates solubility ≥ 1mg/ml)
3 | CC[C@H](C)[C@@H](C(=O)N[C@@H](CC(C)C)C(=O)N[C@@H](CO)C(=O)N[C@@H](CO)C(=O)N[C@H](C(=O)N[C@@H](CC(N)=O)C(=O)N[C@H](C(=O)NCC(=O)N[C@@H](CO)C(=O)N[C@@H](CC(N)=O)C(=O)N[C@H](C(=O)N1CC[C@H]1C(N)=O)[C@@H](C)O)C(C)C)[C@@H](C)O)N(C)C(=O)[C@H](C)NC(=O)CN(C)C(=O)[C@H](Cc1ccccc1)NC(=O)[C@H](CC(N)=O)NC(=O)[C@H](CC(N)=O)NC(=O)[C@H](CO)NC(=O)[C@H](CO)NC(=O)[C@H](CCCNC(=N)N)NC(=O)[C@H](Cc1c[nH]cn1)NC(=O)[C@H](CC(C)C)NC(=O)[C@H](Cc1ccccc1)NC(=O)[C@H](CCC(=O)O)NC(=O)[C@H](C)NC(=O)[C@H](CC(C)C)NC(=O)[C@H](CCCNC(=N)N)NC(=O)[C@H](CCC(N)=O)NC(=O)[C@@H](NC(=O)[C@H](C)NC(=O)[C@@H]1CSSC[C@H](NC(=O)[C@H](CCCNC(=N)N)NC(=O)CC[C@H](NC(=O)CCCCCCCCCCCCCCCCCCC(=O)O)C(=O)O)C(=O)N[C@@H](CC(N)=O)C(=O)N[C@@H]([C@@H](C)O)C(=O)N[C@@H](C)C(=O)N[C@@H]([C@@H](C)O)C(=O)N1)[C@@H](C)O [Compound 107, [19CD]-isoGlu-RC()NTATC()ATQRLAEFLHRSSNNF-Gly(Me)-A-Ile(Me)-LSSTNVGSNT-Aze-NH2] ({C20 diacid-γGlu}-RCNTATCATQRLAEFLHRSSNNF[Sar]A[NMeI]LSSTNVGSNT[Aze]-NH2; disulfide 2-7) | 180 | SS (SS indicates solubility ≥ 1mg/ml) | SS (SS indicates solubility ≥ 1mg/ml) | SS (SS indicates solubility ≥ 1mg/ml) | SS (SS indicates solubility ≥ 1mg/ml) | SS (SS indicates solubility ≥ 1mg/ml) | SS (SS indicates solubility ≥ 1mg/ml) | SS (SS indicates solubility ≥ 1mg/ml)
